Measurements as given in US9308180B2, “Compositions and methods for preparation of poorly water soluble drugs with increased stability” (Abraxis BioScience, LLC, priority 2005, dated 2016).

How the values were obtained:
[1] = Rate of dissolution of docetaxel forms in acetonitrile; assay type: physicochemical; settings: 5 mg/mL (anhydrous basis)
Experimental: To compare if the different types of docetaxel material had different solubility profiles as a result of their different structures, their solubility rates were compared in the solvent acetonitrile. Acetonitrile was added to a fixed amount of docetaxel from different suppliers to obtain a concentration of 5 mg/mL (anhydrous basis). The rate at which dissolution of the different docetaxels occurred was observed. It was observed that the anhydrous docetaxels (from 2 different suppliers) dissolved completely in less than 1 minute. […] Under these further diluted conditions, the time to dissolve was between 5 and 10 minutes for the hydrated materials. A similar observation was made when using the solvent chloroform.

[2] = Stability of docetaxel forms dissolved in Tween 80; assay type: physicochemical; settings: 40 mg/mL (on anhydrous basis) in Tween 80, after a few days
Experimental: It is well known that docetaxel is formulated with Tween 80 as a solubilizer or emulsifier for the commercial product Taxotere. The different docetaxels were dissolved in Tween 80 at a concentration of 40 mg/mL (on anhydrous basis). […] Thus, the anhydrous docetaxel is preferred in the Tween formulation. In addition it may be useful to use a Tween 80 or equivalent surfactant that is anhydrous or very low in water content as the anhydrous form of docetaxel may absorb water to form the hydrated form which could result in precipitation.

SMILES	Time to dissolve completely [1]	Sediment or precipitate in Tween 80 solution [2]	Dissolution (observation) [1]
CC(=O)O[C@@]12CO[C@@H]1C[C@H](O)[C@@]1(C)C(=O)[C@H](O)C3=C(C)[C@@H](OC(=O)[C@H](O)[C@@H](NC(=O)OC(C)(C)C)c4ccccc4)C[C@@](O)([C@@H](OC(=O)c4ccccc4)[C@H]21)C3(C)C [anhydrous docetaxel, docetaxel]	less than 1 minute	no precipitate was observed	
CC(=O)O[C@@]12CO[C@@H]1C[C@H](O)[C@@]1(C)C(=O)[C@H](O)C3=C(C)[C@@H](OC(=O)[C@H](O)[C@@H](NC(=O)OC(C)(C)C)c4ccccc4)C[C@@](O)([C@@H](OC(=O)c4ccccc4)[C@H]21)C3(C)C [partial hydrate, docetaxel hemihydrate]			did not readily dissolve
